Laboratory results as given in paper PMC2845396 (Clinical cancer research : an official journal of the …, 2009).

Assays:
[1] = system: DNMT; conditions: plasma concentration reached only with 5-AC 75 mg/m^2/d; cited from earlier work
[2] = system: DNA methyltransferase (DNMT); test: DNA methyltransferase enzyme activity in paired tumor biopsies; type: in vivo, human; conditions: one patient with hepatocellular carcinoma; 5-AC 15 mg/m^2/d for 14 days
[3] = system: Epstein Barr Virus (EBV); test: EBV viral load in PBMC by real-time PCR; type: in vivo, human; conditions: after 5-AC treatment
[4] = system: advanced solid tumor; conditions: 5-AC 20 – 25 mg/m^2 daily for 10 days; cited from earlier work
[5] = Plasma pharmacokinetics of PB and metabolites PA and PG; conditions: PB continuous infusion over 24 hours, 400 mg/kg/d, Overall
[6] = system: G1/G0 growth arrest; conditions: cited from earlier work
[7] = intravenous administration for 5 days, refractory solid tumors; cited from earlier work
[8] = Toxicity in patients, graded by NCI CTC version 2.0; type: in vivo, human
[9] = system: acetylated histones H3 and H4; test: Histone H3 or H4 acetylation in PBMC, summary over patients; type: in vivo, human
[10] = human, in vivo, 400 mg/kg/day

Structure (SMILES): Nc1ncn([C@@H]2O[C@H](CO)[C@@H](O)[C@H]2O)c(=O)n1 [5-AC, 5-azacytidine]
- concentration shown in vitro to cause DNMT inhibition [1]: 5 µM
- inhibition of DNMT activity [2]: 75% and about 75%
- patients with reduced viral load [3]: Three
- duration of stable disease [4]: 4 – 8 months

Structure (SMILES): O=C(O)Cc1ccccc1 [PA, phenylacetic acid]
- Tmax ([5]; mean (range)): 25.30 (23.83–27.98) h
- AUC[INF] ([5]; mean ± SD): 26680 ± 11236 µM·h
- Cl ([5]; mean ± SD): 9.5 ± 7.6 L/h
- Cmax ([5]; plasma, mean ± SD): 1400 ± 504 µM

Structure (SMILES): O=C([O-])CCCc1ccccc1.[Na+] [PB, sodium phenylbutyrate]
- time to G1/G0 growth arrest [6]: ≤ 96 h
- maximum tolerated dose [7]: 410 mg/kg/day
- confusion, G 3 (CTC grade 3), patients ([8]; human, in vivo): 1
- patients with neuro-cortical toxicity attributable to PB ([8]; of 27 patients, PB 400 mg/kg/day, intermittent or continuous 7 day infusion): 3
- patients with increased acetylation ([9]; PB infused for just 24 hours, Four of 8 patients): 50%
- patients with increased acetylation ([9]; dose schedule B, PB infused for 7 days, 3 of 5 patients): 60%
- Vd [10]: 14.0 ± 8.0 L
